Values after ≈ are worked out from the molar mass of the structure shown.
How the values were obtained:
Assay in all cases: CLSI broth dilution MIC determination
Assay type in all cases: cell-based
E. coli ATCC 25922 = conditions: Escherichia coli, ATCC25922, E. coli ATCC 25922 (MP-4); read-out: MIC
Procedure, shortened: (§1)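 Read-out is the MIC by broth dilution, done according to CLSI standard procedures, with azithromycin and solithromycin included as control macrolides in many runs.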

[1] = tested on: E. coli MP-532 clinical-cErmB; conditions: Escherichia coli
Procedure, shortened: as §1

E. coli MP-541 clinical = conditions: Escherichia coli, MP541CLINICAL, read-out: MIC
Procedure, shortened: as §1

[2] = tested on: E. coli MP-9 ATCC25922:tolC; conditions: Escherichia coli, ATCC25922
Procedure, shortened: as §1

[3] = tested on: S. aureus (MRSA) MP-513 ST-228 cErm (Clinical-cErm); conditions: Staphylococcus aureus, read-out: MIC
Procedure, shortened: as §1

S. aureus ATCC 29213 = conditions: Staphylococcus aureus, ATCC29213; S. aureus ATCC 29213 (MP-12); read-out: MIC
Procedure, shortened: as §1

[4] = tested on: S. aureus MP-17 ATCCBAA-977 (BAA 977 iErm); conditions: Staphylococcus aureus; S. aureus MP-17, ATCCBAA-977, iErm; read-out: MIC
Procedure, shortened: as §1

S. aureus MRSA: USA100 = conditions: Staphylococcus aureus; S. aureus MRSA: USA100 (MP-618 UNT-096); read-out: MIC
Procedure, shortened: as §1

S. aureus MRSA: USA300 = conditions: Staphylococcus aureus; S. aureus MRSA: USA300 (MP-549, msr(a)); read-out: MIC
Procedure, shortened: as §1

S. aureus USA600, GISA = conditions: Staphylococcus aureus; S. aureus USA600, GISA (MP-619 UNT-120); read-out: MIC
Procedure, shortened: as §1

S. aureus erm A genotype = conditions: Staphylococcus aureus; S. aureus erm A genotype (MP-620 UNT-146); read-out: MIC
Procedure, shortened: as §1

S. pneumoniae ATCC 49619 = conditions: Streptococcus pneumoniae, ATCC49619, S. pneumoniae ATCC 49619 (MP-21); read-out: MIC
Procedure, shortened: as §1

[5] = tested on: S. pneumoniae mef A genotype (first strain so labelled); conditions: Streptococcus pneumoniae, first strain (MP-626 UNT-038)
Procedure, shortened: as §1

[6] = tested on: S. pneumoniae mef A genotype (second strain so labelled); conditions: Streptococcus pneumoniae, second strain (MP-627 UNT-039), read-out: MIC
Procedure, shortened: as §1

S. pyogenes ATCC 19615 = conditions: Streptococcus pyogenes, ATCC19615, S. pyogenes ATCC 19615 (MP-19); read-out: MIC
[7] = tested on: S. pyogenes Macrolide-resistant; conditions: Streptococcus pyogenes, S. pyogenes Macrolide-resistant (MP-625 UNT-014); read-out: MIC
E. faecalis ATCC 29212 = conditions: Enterococcus faecalis, ATCC29212, E. faecalis ATCC 29212 (MP-24); read-out: MIC
[8] = tested on: E. faecalis Vancomycin-resistant; conditions: Enterococcus faecalis, E. faecalis Vancomycin-resistant (UNT-039); read-out: MIC
A. baumannii ATCC 19606 = conditions: Acinetobacter baumannii, ATCC19606; A. baumannii ATCC 19606 (MP-15); read-out: MIC
K. pneumoniae ATCC 10031 = conditions: Klebsiella pneumoniae, ATCC10031, K. pneumoniae ATCC 10031 (MP-14); read-out: MIC
P. aeruginosa ATCC 27853 = conditions: Pseudomonas aeruginosa, ATCC27853; P. aeruginosa ATCC 27853 (MP-3); read-out: MIC
P. aeruginosa MP-7 PAO1 = conditions: Pseudomonas aeruginosa, read-out: MIC
[9] = tested on: P. aeruginosa MP-8 PAO1:mex (mex-oprM-deletion); conditions: Pseudomonas aeruginosa, PAO1
[10] = tested on: K. pneumoniae MP-548 clinical; conditions: Klebsiella pneumoniae, MP548CLINICAL, read-out: MIC
[11] = tested on: K. pneumoniae MP-546 Clinical-MDR; conditions: Klebsiella pneumoniae, read-out: MIC
[12] = tested on: A. baumannii MP-577 Clinical-AZT low; conditions: Acinetobacter baumannii, read-out: MIC
[13] = tested on: A. baumannii MP-576 Clinical-MDR; conditions: Acinetobacter baumannii, read-out: MIC

Row | Structure (SMILES) | MIC (E. coli ATCC 25922) [µg/mL] | MIC [1] [µg/mL] | MIC (E. coli MP-541 clinical) [µg/mL] | MIC [2] [µg/mL] | MIC [3] [µg/mL] | MIC (S. aureus ATCC 29213) [µg/mL] | MIC [4] [µg/mL] | MIC (S. aureus MRSA: USA100) [µg/mL] | MIC (S. aureus MRSA: USA300) [µg/mL] | MIC (S. aureus USA600, GISA) [µg/mL] | MIC (S. aureus erm A genotype) [µg/mL] | MIC (S. pneumoniae ATCC 49619) [µg/mL] | MIC [5] [µg/mL] | MIC [6] [µg/mL] | MIC (S. pyogenes ATCC 19615) [µg/mL] | MIC [7] [µg/mL] | MIC (E. faecalis ATCC 29212) [µg/mL] | MIC [8] [µg/mL] | MIC (A. baumannii ATCC 19606) [µg/mL] | MIC (K. pneumoniae ATCC 10031) [µg/mL] | further results
1 | CC[C@H]1OC(=O)[C@H](C)C(=O)[C@H](C)[C@@H](O[C@@H]2OC(C)CC(N(C)C)C2O)[C@](C)(OC)C[C@@H](C)C(=O)[C@H](C)[C@H]2N(CC#CCn3cc(-c4cccc(N)n4)nn3)C(=O)O[C@]12C (stereo partly drawn) [FSM-100551] | 8 (≈ 9.71 µM) | > 64 | 16 (≈ 19.4 µM) | 2 (≈ 2.43 µM) | > 64 | 0.06 (≈ 0.0728 µM) | 0.06 (≈ 0.0728 µM) | > 64 | 0.125 (≈ 0.152 µM) | 64 (≈ 77.7 µM) | > 64 | < 0.03 | < 0.03 | < 0.03 | < 0.03 | 0.06 (≈ 0.0728 µM) | < 0.03 | 4 (≈ 4.85 µM) | 4 (≈ 4.85 µM) | 8 (≈ 9.71 µM) | MIC (P. aeruginosa ATCC 27853): 16 µg/mL (≈ 19.4 µM); MIC (P. aeruginosa MP-7 PAO1): 32 µg/mL (≈ 38.8 µM); MIC [9]: 4 µg/mL (≈ 4.85 µM); MIC [10]: 32 µg/mL (≈ 38.8 µM); MIC [11]: > 64 µg/mL; MIC [12]: 16 µg/mL (≈ 19.4 µM); MIC [13]: > 64 µg/mL
2 | CC[C@H]1OC(=O)[C@@](C)(F)C(=O)[C@H](C)[C@@H](O[C@@H]2OC(C)CC(N(C)C)C2O)[C@](C)(OC)C[C@@H](C)C(=O)[C@H](C)[C@H]2N(CC#CCn3cc(-c4cc(F)ccn4)nn3)C(=O)O[C@]12C (stereo partly drawn) [FSM-100563] | 16 (≈ 18.9 µM) | > 64 | 16 (≈ 18.9 µM) | 2 (≈ 2.37 µM) | 16 (≈ 18.9 µM) | 0.06 (≈ 0.071 µM) | 0.06 (≈ 0.071 µM) | 32 (≈ 37.9 µM) | 0.125 (≈ 0.148 µM) | 16 (≈ 18.9 µM) | 16 (≈ 18.9 µM) | < 0.03 | < 0.03 | < 0.03 | < 0.03 | < 0.03 | < 0.03 | 2 (≈ 2.37 µM) | 8 (≈ 9.47 µM) | 8 (≈ 9.47 µM) | MIC (P. aeruginosa ATCC 27853): 32 µg/mL (≈ 37.9 µM); MIC (P. aeruginosa MP-7 PAO1): 64 µg/mL (≈ 75.7 µM); MIC [9]: 8 µg/mL (≈ 9.47 µM); MIC [10]: 64 µg/mL (≈ 75.7 µM); MIC [11]: > 64 µg/mL; MIC [12]: 32 µg/mL (≈ 37.9 µM); MIC [13]: > 64 µg/mL
3 | CC[C@H]1OC(=O)[C@H](C)C(=O)[C@H](C)[C@@H](O[C@@H]2OC(C)CC(N(C)C)C2O)[C@](C)(OC)C[C@@H](C)C(=O)[C@H](C)[C@H]2N(CC#CCn3cc(-c4cc(F)ccn4)nn3)C(=O)O[C@]12C (stereo partly drawn) [FSM-100566] | 32 (≈ 38.7 µM) | > 64 | 32 (≈ 38.7 µM) | 2 (≈ 2.42 µM) | > 64 | 0.06 (≈ 0.0726 µM) | 0.06 (≈ 0.0726 µM) | > 64 | 0.125 (≈ 0.151 µM) | 64 (≈ 77.4 µM) | > 64 | < 0.03 | < 0.03 | < 0.03 | < 0.03 | < 0.03 | < 0.03 | 8 (≈ 9.67 µM) | 16 (≈ 19.3 µM) | 8 (≈ 9.67 µM) | MIC (P. aeruginosa ATCC 27853): 64 µg/mL (≈ 77.4 µM); MIC (P. aeruginosa MP-7 PAO1): > 64 µg/mL; MIC [9]: 8 µg/mL (≈ 9.67 µM); MIC [10]: 64 µg/mL (≈ 77.4 µM); MIC [11]: > 64 µg/mL; MIC [12]: 64 µg/mL (≈ 77.4 µM); MIC [13]: > 64 µg/mL
